Patent publication US11186606B2, “Compositions and methods of modulating the immune response by activating alpha protein kinase 1” (Shanghai Yao Yuan Biotechnology Co., Ltd., priority 2017, dated 2021)

Tests used:
ALPK1 [1] = molecular target: T1, ALPK1 (Homo sapiens, UniProt Q96QP1); assay: IL8 secretion in HEK293 cells (IL8 ELISA) as indicator of ALPK1 activation; conditions: without FBS, 4 hours
Description: (§2) We pre-mixed H1b-ADP with phosphatase inhibitor sodium orthovanadate (Na3VO4) before incubation with FBS.
(§3) In these experiments, serial dilutions of the compounds were added to the tissue culture media of HEK293 cells with (FIG. 27B, FIG. 28B, FIG. 29B) or without (FIG. 26, FIG. 27A, FIG. 28A, FIG. 29A) 10% FBS, as indicated in the figures. After 4 hours, the cell supernatant was collected and analyzed for IL8 concentration using IL8 ELISA (BD) as an indicator of ALPK1 activation.

CT26 cells = assay: CT26 tumor xenograft model, tumor volume; type: in vivo, BALB/c mice
Description: We used a CT26 tumor xenograft model to test the anti-cancer activity of H1b-ADP. Tumor cells (2×10^5 per 100 uL CT26 cells) were inoculated subcutaneously into the right flank of BALB/c mice. At day 6, mice whose tumors had reached 3-5 mm in diameter were randomized and grouped into three groups (n=8 each group), control, HMP-1bP (580 ug), and H1b-ADP (1.2 ug). Injections were performed using a total volume of 20 uL at days 6, 8, 10, 12, and 14 post inoculation. Tumor volumes were calculated every 2 days from caliper measurements of tumor dimension using the formula (L×W^2)/2, where L is the longer measurement.
To test whether H1b-ADP could augment an anti-tumor response by a checkpoint inhibitor, we tested the effects of co-administration with an anti-PD1 antibody. Tumor cells (2×10^5 per 100 μL CT26 cells) were inoculated subcutaneously into the left and right flanks of BALB/c mice. At day 7, mice whose tumors had reached 5 mm in diameter were randomized and grouped (n=8 each group) into the following four groups: anti-PD1 antibody; rat IgG; H1b-ADP+rat IgG; H1b-ADP+anti-PD1 antibody. We utilized RMP1-14 as the anti-PD1 antibody (10 mg/kg) and a rat IgG 2a (2A3) as the control IgG. Each of the anti-PD-1 antibody and the control IgG was administered intraperitoneally in a 200 μL volume on days 6, 10, 12, and 17 post-inoculation. H1b-ADP (6.2 μg) was intratumorally injected in a 20 μL volume at day 6, 8, 10, 12, and 15. Tumor volumes were calculated every 2 days from caliper measurements of tumor dimensions using the formula (L×W^2)/2, where L is the longer measurement. The results are shown in FIG. 13A for injected tumors and FIG. 13B for distant tumors. […]
The experiment was carried out as combo experiments of anti-PD1 except for the following variations. At day 6, mice whose tumors had reached 5 mm in diameter were randomized and grouped into the following four groups: c-di-AM(PS)2; PBS; H1b-ADP; H1b-ADP+c-di-AM(PS)2. We utilized c-di-AM(PS)2 as the STING agonist. Each of the c-di-AM(PS)2 (1 μg) and H1b-ADP (6.2 μg) was administered intratumorally in a 20 μL volume on days 6, 7, and 9 post-inoculation.
The experiment was carried out as combo experiments of anti-PD-1 except for the following variations. At day 6, mice whose tumors had reached 5 mm in diameter were randomized and grouped into the following four groups: anti-CD4 antibody (GK1.5 clone, BE0003-1, BioXcell); rat IgG; H1b-ADP+rat IgG; H1b-ADP+anti-CD4 antibody. Each of the anti-CD4 antibody (200 μg) and the control IgG (200 μg) was administered intraperitoneally in a 200 μL volume on days 3, 4, 8 post-inoculation. H1b-ADP (6.2 μg) was administered intratumorally in a 20 μL volume on days 6, 8, 10, 12, 14 post-inoculation.
The experiment was carried out as combo experiments of anti-PD-1 except for the following variations. At day 6, mice whose tumors had reached 5 mm in diameter were randomized and grouped into the following four groups: Resquimod; PBS; H1b-ADP; H1b-ADP+Resquimod. Resquimod (10 μg) and H1b-ADP (6.2 μg) were administered intratumorally in a 20 μL volume on days 6, 8, 11 post-inoculation.
We used a CT26 tumor xenograft model to test the anti-cancer activity of H1b-ADP derivative Compounds 1 and 2. Tumor cells (2×10^5 per 100 uL CT26 cells) were inoculated subcutaneously into the right flank of BALB/c mice. At day 7, mice whose tumors had reached 3-5 mm in diameter were randomized and grouped into three groups (n=9 each group), control, Compound 1 (50 nmol), and Compound 2 (50 nmol). Injections were performed using a total volume of 20 uL at days 7, 9, and 11 post inoculation. Tumor volumes were calculated every 2 days from caliper measurements of tumor dimension using the formula (L×W^2)/2, where L is the longer measurement.

[2] = tested on: mouse liver and lung tissue; assay: Chemokine and cytokine expression in liver and lung tissue after subcutaneous injection (qPCR); type: in vivo; conditions: C57 mice, three hours
Description: In additional experiments, Compound 1 was injected subcutaneously into 7 week old C57 mice at concentrations of 2, 10, 50, and 200 nmol. Tissue was harvested three hours later and RNA extracted. Quantitative PCR (qPCR) was performed to determine the tissue expression levels Cxcl1, Cxcl11, IL1b, and IL6 in mouse liver (FIG. 32A) and lung (FIG. 32B) tissue. Additional chemokines and cytokines were assayed in the lung tissue.

[3] = tested on: phosphatase activity in the serum; assay: Incubation of H1b-ADP with FBS, product analysed by LC-MS; type: in vitro ADME, bovine
From the text: (§1) FBS contains 110-352 U/ml alkaline phosphatase.

ALPK1 [4] = assay: IL8 secretion in HEK293 cells (IL8 ELISA) as indicator of ALPK1 activation; conditions: added to the FBS-containing medium, HEK293 cells, IL8 secretion
Description: as §2, §3

[5] = tested on: bovine alkaline phosphatase; assay: Incubation of H1b-ADP with bovine alkaline phosphatase; type: biochemical
From the text: as §1

ALPK1 [6] = molecular target: T1, ALPK1; assay: In vitro kinase assay of ALPK1-dependent TIFA phosphorylation; type: biochemical; conditions: for phosphorylation of the ALPK1 substrate TIFA: FIG. 7, chemically-synthesized compounds
Description: We performed an in vitro kinase assay with H1b-ADP and H1b-ADP-6L along with ALPK1 protein (2 nM), and TIFA protein (1.6 uM) in kinase buffer containing 50 uM ATP. TIFA phosphorylation was analyzed by denaturing gel electrophoresis followed by western blotting using an anti-phosphothreonine antibody. H1b-ADP or H1b-ADP-6L was added at 2 nM, 0.4 nM, 80 pM, 16 pM, and 3 pM.
To test this, we performed an in vitro kinase reaction for ALPK1-dependent TIFA phosphorylation in the presence of either HBP or HIdA purified from E. coli containing inactivated HIdE, or in the presence of HBP and HIdA purified from the same HIdE wild-type E. coli used in the previous experiments. Phosphorylated TIFA (three concentrations, 1%, 0.2% and […]) was detected as described above by denaturing gel electrophoresis followed by Western analysis.

ALPK1 [7] = molecular target: T1, ALPK1; assay: Thermal shift assay (SYPRO Orange) for binding to ALPK1; conditions: ALPK1 7 uM; 1 uM, 5 uM, 25 uM, or 125 uM
From the text: The thermal shift assay is widely used to determine the binding of a molecule to a protein of interest. The assay is based on the increase in thermal energy required for denaturation of a protein where another molecule is bound to the protein. SYPRO Orange is a fluorescent compound used in the detection of thermal shift. SYPRO Orange binds to hydrophobic surfaces of the protein, and water strongly quenches its fluorescence. When the protein unfolds, the exposed hydrophobic surfaces bind the dye, resulting in an increase in fluorescence. When another molecule is bound to the protein, an increase in the temperature required for unfolding of the protein is observed.
This assay system was used to determine whether or not chemically synthesized HBP, HMP-1bP, and H1b-ADP directly bind to ALPK1. […] Only H1b-ADP induced a shift of more than 1 degree, at each of the three highest concentrations tested, 5 uM, 25 uM, and 125 uM.

ALPK1 [8] = molecular target: T1, ALPK1; assay: IL-8 and TNFα mRNA expression in HEK293 cells with control or ALPK1-directed siRNA; type: cell-based; set-up: ALPK1-directed small interfering RNA (siRNA) to silence ALPK1 expression in HEK293 cells; endogenous in cells; host or cells: HEK293; conditions: for IL-8 mRNA expression / TNFα mRNA expression: 4 hours, control vs ALPK1-directed siRNA; for concentration required to induce IL-8 and TNFα mRNA expression: FIG. 5
Description: To test whether HBP, HMP-1bP, and H1b-ADP were able to induce cytokine expression in an ALPK1 dependent manner, we used an ALPK1-directed small interfering RNA (siRNA) to silence ALPK1 expression in HEK293 cells. Cells were plated (1×10^4 cells/well) into 96-well plates and transfected with either control siRNA or ALPK1-directed siRNA according to the manufacturer's protocols (Lipofectamine™ RNAiMax™, Invitrogen 13778075). Following 2 days of culture, either (1) HBP (500 uM, 100 uM, 20 uM, FIG. 2A-2B) (2) HMP-1bP (500 uM, 100 uM, FIG. 3A-3B), (3) H1b-ADP (100 nM, 20 nM, 4 nM, 0.8 nM, FIG. 4A-4B) was added to culture medium and cells were harvested 4 hours later.

ALPK1 [9] = molecular target: T1, ALPK1; assay: Cell-free kinase assay of ALPK1 autophosphorylation (Western, anti-phospho-threonine); type: biochemical; conditions: ALPK1 2 nM, ATP; H1b-ADP 10, 1, 0.2 nM; HBP and HMP-1bP 1, 10, 100 nM
Description: ALPK1 activation results in its autophosphorylation. Accordingly, we next asked whether the binding of H1b-ADP to ALPK1 was sufficient to induce ALPK1 autophosphorylation. Phosphorylation assays were performed according to standard protocols. Briefly, ALPK1 was incubated (2 nM, 25° C., 1 h) in assay buffer (20 al, 25 mM HEPES pH 7.5, 50 mM KCl, 0.1 mM EDTA, 0.1 mM EGTA, 2 mM DTT, 1.5 mM CaCl2, 10 mM MgCl2) with ATP and chemically synthesized HBP, HMP-1bP, or H1b-ADP followed by denaturing gel electrophoresis and Western analysis with an anti-phospho-threonine antibody (CST) to detect autophosphorylation of ALPK1. […] The range of concentrations of HBP and HMP-1bP used in this assay (1 nM, 10 nM, 100 nM) was 10-fold higher than that used for H1b-ADP.

T1 sequence (Q96QP1 whole entry): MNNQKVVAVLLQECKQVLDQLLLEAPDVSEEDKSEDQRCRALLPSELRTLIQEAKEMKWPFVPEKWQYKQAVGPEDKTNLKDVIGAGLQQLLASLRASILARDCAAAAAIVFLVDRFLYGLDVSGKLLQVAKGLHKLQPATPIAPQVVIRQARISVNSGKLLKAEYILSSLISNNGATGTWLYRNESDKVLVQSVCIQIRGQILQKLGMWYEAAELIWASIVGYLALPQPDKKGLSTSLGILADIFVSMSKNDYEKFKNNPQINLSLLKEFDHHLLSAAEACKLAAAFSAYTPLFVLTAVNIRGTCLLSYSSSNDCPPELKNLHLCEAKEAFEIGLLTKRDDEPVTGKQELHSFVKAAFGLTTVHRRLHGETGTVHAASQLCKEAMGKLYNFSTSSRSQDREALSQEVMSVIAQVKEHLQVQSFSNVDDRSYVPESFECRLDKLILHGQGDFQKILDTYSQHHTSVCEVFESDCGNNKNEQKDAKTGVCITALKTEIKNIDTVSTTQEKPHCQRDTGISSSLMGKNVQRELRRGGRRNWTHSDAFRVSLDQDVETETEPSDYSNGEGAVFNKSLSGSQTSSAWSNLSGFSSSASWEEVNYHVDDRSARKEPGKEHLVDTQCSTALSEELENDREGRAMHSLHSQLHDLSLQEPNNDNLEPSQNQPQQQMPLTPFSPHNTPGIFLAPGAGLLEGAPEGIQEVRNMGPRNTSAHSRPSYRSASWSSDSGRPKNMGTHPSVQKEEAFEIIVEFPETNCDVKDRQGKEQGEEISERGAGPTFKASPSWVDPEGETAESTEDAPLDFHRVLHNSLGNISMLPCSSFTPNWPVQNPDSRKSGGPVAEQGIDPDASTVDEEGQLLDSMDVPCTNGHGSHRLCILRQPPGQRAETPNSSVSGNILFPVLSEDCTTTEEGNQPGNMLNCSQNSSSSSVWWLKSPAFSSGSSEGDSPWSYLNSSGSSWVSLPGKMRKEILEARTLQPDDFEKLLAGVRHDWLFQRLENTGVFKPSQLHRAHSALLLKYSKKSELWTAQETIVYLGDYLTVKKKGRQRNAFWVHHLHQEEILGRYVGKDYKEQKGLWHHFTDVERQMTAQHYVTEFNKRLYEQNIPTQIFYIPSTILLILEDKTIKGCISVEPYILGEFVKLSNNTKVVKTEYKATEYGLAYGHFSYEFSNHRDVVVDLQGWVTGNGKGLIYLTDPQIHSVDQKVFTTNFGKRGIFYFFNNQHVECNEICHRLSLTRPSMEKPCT

Row | phosphorylation of the ALPK1 substrate TIFA (ALPK1 [6]) | IL-8 mRNA expression (ALPK1 [8]) | TNFα mRNA expression (ALPK1 [8]) | concentration required to induce IL-8 and TNFα mRNA expression (ALPK1 [8]) | autophosphorylation of ALPK1 (ALPK1 [9]) | Compound | restoration of H1b-ADP's activity in the cell based assay (ALPK1 [4]) | thermal shift / direct binding to ALPK1 (ALPK1 [7]) | further results
1 |  |  |  |  |  | CC(=O)OC[C@@H](OC(C)=O)[C@H]1O[C@@H](OP(=O)(O)OP(=O)(O)OC[C@H]2O[C@@H](n3cnc4c(N)ncnc43)[C@H](O)[C@@H]2F)[C@@H](OC(C)=O)[C@@H](OC(C)=O)[C@@H]1OC(C)=O [Compound 1, (2S,3S,4S,5R,6R)-2-(((((((2R,3S,4S,5R)-5-(6-amino-9H-purin-9-yl)-3-fluoro-4-hydroxytetrahydrofuran-2-yl)methoxy)(hydroxy)phosphoryl)oxy)(hydroxy)phosphoryl)oxy)-6-((R)-1,2-diacetoxyethyl)tetrahydro-2H-pyran-3,4,5-triyl triacetate] |  |  | IL8 secretion in HEK293 cells (ALPK1 [1]): activate IL8 secretion; tumor growth (CT26 cells; Example 18: 50 nmol, injections days 7, 9, 11): reduced tumor growth; dose activating an inflammatory response in lung tissue [2]: 200 nmol; dose activating an inflammatory response in liver tissue ([2]; 2 nmole = 1.2 μg): ≤ 2 nmol
2 |  |  |  |  |  | [Na+].[Na+].[Na+].[O]=[V]([O-])([O-])[O-] [Na3VO4, sodium orthovanadate] | could restore H1b-ADP's activity |  | H1b-ADP hydrolysis ([3]; 1 mM, pre-mixed with H1b-ADP before incubation with FBS): effectively inhibited H1b-ADP hydrolysis; phosphatase activity (H1b-ADP hydrolysis) [5]: blocked by increasing amount of Na3VO4
3 |  |  |  |  |  | Nc1ncnc2c1ncn2[C@@H]1O[C@H](COP(=O)(O)O)[C@@H](O)[C@H]1O [AMP] | could restore H1b-ADP's activity |  | phosphatase activity in serum ([3]; pre-treatment of H1b-ADP before serum incubation): inhibited phosphatase activity and the inhibition was AMP dose-dependent
4 | only in the presence of H1b-ADP | increased in an ALPK1-dependent manner | increased in an ALPK1-dependent manner | 100 µM | not | O=P(O)(O)OC[C@@H](O)[C@H]1O[C@@H](OP(=O)(O)O)[C@@H](O)[C@@H](O)[C@@H]1O [HBP, D-glycero-β-D-manno-heptose 1,7-bisphosphate] |  | Neither HBP nor HMP-1bP were able to induce a thermal shift | anti-tumor activity in a murine tumor model (CT26 cells; summary statement): not
5 |  |  |  |  |  | Nc1ncnc2c1ncn2[C@@H]1O[C@H](COP(=O)(O)OP(=O)(O)O[C@@H]2O[C@H]([C@@H](O)CO)[C@@H](O)[C@H](O)[C@@H]2O)[C@@H](O)[C@H]1O [Compound H1b-ADP-6L, L-glycero-D-manno-heptose-1β-ADP] |  |  | TIFA phosphorylation (ALPK1-dependent signaling) (ALPK1 [6]; ALPK1 2 nM, TIFA 1.6 uM, 50 uM ATP, 2 nM to 3 pM): activated ALPK1-dependent signaling in a manner similar to H1b-ADP
6 | only in the presence of H1b-ADP | increased in an ALPK1-dependent manner | increased in an ALPK1-dependent manner | 100 µM | not | O=P(O)(O)O[C@@H]1O[C@H]([C@H](O)CO)[C@@H](O)[C@H](O)[C@@H]1O [HMP-1bP, D-glycero-β-D-manno-heptose-1-phosphate] |  | Neither HBP nor HMP-1bP were able to induce a thermal shift | tumor growth (CT26 cells; intratumoral, days 6, 8, 10, 12, 14, HMP-1bP 580 ug, H1b-ADP 1.2 ug): not
